Experimental data reported in patent US9751926B2 (priority 2013, dated 2017).
Non-standard residues stand in square brackets, D forms with d. Residues, ends and D or L forms follow the SMILES beside them. Met(O2) = CS(=O)(=O)CC[C@H](N)C(=O)O; Aib = CC(C)(N)C(=O)O

Columns and labels:
human glucagon receptor = biological target: T1, human glucagon receptor (Homo sapiens, UniProt P47871); assay: cAMP response (HTRF) of HEK-293 cells stably expressing human glucagon receptor; type: cell-based; settings: Table 6; formed cAMP; read-out: EC50 hGLUC R
T1 construct: expressed in transfected cells
T1 sequence (P47871 26-477): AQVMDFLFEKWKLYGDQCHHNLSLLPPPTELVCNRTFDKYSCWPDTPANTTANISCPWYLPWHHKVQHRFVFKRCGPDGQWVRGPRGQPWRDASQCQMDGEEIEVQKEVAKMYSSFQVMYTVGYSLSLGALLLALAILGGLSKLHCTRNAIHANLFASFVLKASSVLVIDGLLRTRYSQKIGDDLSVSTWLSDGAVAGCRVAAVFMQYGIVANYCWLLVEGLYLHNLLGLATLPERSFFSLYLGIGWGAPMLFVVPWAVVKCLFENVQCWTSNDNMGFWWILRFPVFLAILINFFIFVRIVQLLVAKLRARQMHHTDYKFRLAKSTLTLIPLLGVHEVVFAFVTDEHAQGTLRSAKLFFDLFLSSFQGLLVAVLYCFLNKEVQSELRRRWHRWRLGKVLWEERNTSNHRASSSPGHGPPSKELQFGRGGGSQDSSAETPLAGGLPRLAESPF
Description: (§1) cAMP content of cells was determined using a kit from Cisbio Corp. (cat. no. 62AM4PEC) based on HTRF (Homogenous Time Resolved Fluorescence). For preparation, cells were split into T175 culture flasks and grown overnight to near confluency in medium (DMEM/10% FBS). Medium was then removed and cells washed with PBS lacking calcium and magnesium, followed by proteinase treatment with accutase (Sigma-Aldrich cat. no. A6964). Detached cells were washed and resuspended in assay buffer (1×HBSS; 20 mM HEPES, 0.1% BSA, 2 mM IBMX) and cellular density determined. They were then diluted to 400000 cells/ml and 25 μl-aliquots dispensed into the wells of 96-well plates. For measurement, 25 μl of test compound in assay buffer was added to the wells, followed by incubation for 30 minutes at room temperature.

human GLP-1 receptor = biological target: T2, human GLP-1 receptor (Homo sapiens, UniProt P43220); assay: cAMP response (HTRF) of HEK-293 cells stably expressing human GLP-1 receptor; type: cell-based; settings: Table 6; formed cAMP; read-out: EC50 hGLP-1 R
T2 construct: expressed in transfected cells
T2 sequence (P43220 24-463): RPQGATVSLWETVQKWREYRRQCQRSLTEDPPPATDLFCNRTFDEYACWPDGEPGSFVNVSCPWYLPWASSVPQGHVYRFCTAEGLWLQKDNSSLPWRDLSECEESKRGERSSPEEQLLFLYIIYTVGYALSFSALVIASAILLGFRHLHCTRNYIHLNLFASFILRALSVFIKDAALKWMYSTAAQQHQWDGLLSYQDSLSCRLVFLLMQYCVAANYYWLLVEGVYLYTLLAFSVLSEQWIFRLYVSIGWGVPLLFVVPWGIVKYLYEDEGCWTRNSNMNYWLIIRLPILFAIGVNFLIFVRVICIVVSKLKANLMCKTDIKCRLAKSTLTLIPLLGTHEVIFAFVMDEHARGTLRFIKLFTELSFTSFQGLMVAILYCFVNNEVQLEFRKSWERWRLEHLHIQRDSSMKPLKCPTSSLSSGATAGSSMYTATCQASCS
Description: as §1

physchem = type: physicochemical

| Structure (SMILES) | EC50 (human glucagon receptor) [nM] | EC50 (human GLP-1 receptor) [nM] | solubility at 2 h (physchem; pH 4.5) [µg/mL] | solubility at 2 h (physchem; pH 7.4) [µg/mL] |
| --- | --- | --- | --- | --- |
| CC[C@H](C)[C@H](NC(=O)[C@H](CO)NC(=O)[C@H](CC(C)C)NC(=O)[C@H](CC(=O)O)NC(=O)[C@H](CO)NC(=O)[C@@H](NC(=O)[C@H](Cc1ccccc1)NC(=O)[C@@H](NC(=O)CNC(=O)[C@H](CCC(=O)O)NC(=O)C(C)(C)NC(=O)[C@@H](N)Cc1ccc(O)cc1)[C@@H](C)O)[C@@H](C)O)C(=O)N[C@@H](CCC(N)=O)C(=O)N[C@@H](CC[S+](C)[O-])C(=O)N[C@@H](CCC(=O)O)C(=O)N[C@@H](CCCCN)C(=O)N[C@@H](CCC(=O)O)C(=O)N[C@@H](C)C(=O)N[C@H](C(=O)N[C@@H](CCCNC(=N)N)C(=O)N[C@@H](CC(C)C)C(=O)N[C@@H](Cc1ccccc1)C(=O)N[C@H](C(=O)N[C@@H](CCC(=O)O)C(=O)N[C@@H](Cc1c[nH]c2ccccc12)C(=O)N[C@@H](CC(C)C)C(=O)N[C@@H](CCCCN)C(=O)N[C@@H](C)C(=O)NCC(=O)NCC(=O)N1CCC[C@H]1C(=O)N[C@@H](CO)C(=O)N[C@@H](CO)C(=O)NCC(=O)N[C@@H](C)C(=O)N1CCC[C@H]1C(=O)N1CCC[C@H]1C(=O)N1CCC[C@H]1C(=O)N[C@@H](CO)C(N)=O)[C@@H](C)CC)C(C)C (stereo partly shown) [compound 13] | > 1000 | – | – | – |
| CC[C@H](C)[C@H](NC(=O)[C@H](CO)NC(=O)[C@H](CC(C)C)NC(=O)[C@H](CC(=O)O)NC(=O)[C@H](CO)NC(=O)[C@@H](NC(=O)[C@H](Cc1ccccc1)NC(=O)[C@@H](NC(=O)CNC(=O)[C@H](CCC(=O)O)NC(=O)C(C)(C)NC(=O)[C@@H](N)Cc1ccc(O)cc1)[C@@H](C)O)[C@@H](C)O)C(=O)N[C@@H](CCC(N)=O)C(=O)N[C@@H](CC(C)C)C(=O)N[C@@H](CCC(=O)O)C(=O)N[C@@H](CCCCN)C(=O)N[C@@H](CCC(=O)O)C(=O)N[C@@H](C)C(=O)N[C@H](C(=O)N[C@@H](CCCNC(=N)N)C(=O)N[C@@H](CC(C)C)C(=O)N[C@@H](Cc1ccccc1)C(=O)N[C@H](C(=O)N[C@@H](CCC(=O)O)C(=O)N[C@@H](Cc1c[nH]c2ccccc12)C(=O)N[C@@H](CC(C)C)C(=O)N[C@@H](CCCCN)C(=O)N[C@@H](C)C(=O)NCC(=O)NCC(=O)N1CCC[C@H]1C(=O)N[C@@H](CO)C(=O)N[C@@H](CO)C(=O)NCC(=O)N[C@@H](C)C(=O)N1CCC[C@H]1C(=O)N1CCC[C@H]1C(=O)N1CCC[C@H]1C(=O)N[C@@H](CO)C(N)=O)[C@@H](C)CC)C(C)C [compound 10] | – | 0.0012 | – | – |
| CC[C@H](C)[C@H](NC(=O)[C@H](CO)NC(=O)[C@H](CC(C)C)NC(=O)[C@H](CC(=O)O)NC(=O)[C@H](CO)NC(=O)[C@@H](NC(=O)[C@H](Cc1ccccc1)NC(=O)[C@@H](NC(=O)CNC(=O)[C@H](CCC(=O)O)NC(=O)C(C)(C)NC(=O)[C@@H](N)Cc1ccc(O)cc1)[C@@H](C)O)[C@@H](C)O)C(=O)N[C@@H](CCC(N)=O)C(=O)N[C@@H](CC(C)C)C(=O)N[C@@H](CCC(=O)O)C(=O)N[C@@H](CCCCN)C(=O)N[C@@H](CCC(=O)O)C(=O)N[C@@H](C)C(=O)N[C@H](C(=O)N[C@@H](CCCNC(=N)N)C(=O)N[C@@H](CC(C)C)C(=O)N[C@@H](Cc1ccccc1)C(=O)N[C@H](C(=O)N[C@@H](CCC(=O)O)C(=O)N[C@@H](Cc1c[nH]c2ccccc12)C(=O)N[C@@H](CC(C)C)C(=O)N[C@@H](CCCCN)C(=O)N[C@@H](C)C(=O)NCC(=O)NCC(=O)N1CCC[C@H]1C(=O)N[C@@H](CO)C(=O)N[C@@H](CO)C(=O)NCC(=O)N[C@@H](C)C(=O)N1CCC[C@H]1C(=O)N1CCC[C@H]1C(=O)N1CCC[C@H]1C(=O)N[C@@H](CO)C(N)=O)[C@@H](C)CC)C(C)C [compound 20] | > 1000 | 0.001 | – | – |
| CC[C@H](C)[C@H](NC(=O)[C@H](CO)NC(=O)[C@H](CC(C)C)NC(=O)[C@H](CC(=O)O)NC(=O)[C@H](CO)NC(=O)[C@@H](NC(=O)[C@H](Cc1ccccc1)NC(=O)[C@@H](NC(=O)CNC(=O)[C@H](CCC(=O)O)NC(=O)C(C)(C)NC(=O)[C@@H](N)Cc1ccc(O)cc1)[C@@H](C)O)[C@@H](C)O)C(=O)N[C@@H](CCC(N)=O)C(=O)N[C@@H](CC(C)C)C(=O)N[C@@H](CCC(=O)O)C(=O)N[C@@H](CCC(=O)O)C(=O)N[C@@H](CCC(=O)O)C(=O)N[C@@H](C)C(=O)N[C@H](C(=O)N[C@@](C)(CCCN)C(=O)N[C@@H](CC(C)C)C(=O)N[C@@H](Cc1ccccc1)C(=O)N[C@H](C(=O)N[C@@H](CCC(=O)O)C(=O)N[C@@H](Cc1c[nH]c2ccccc12)C(=O)N[C@@H](CC(C)C)C(=O)N[C@@H](CCCCN)C(=O)N[C@@H](C)C(=O)NCC(=O)NCC(=O)N1CCC[C@H]1C(=O)N[C@@H](CO)C(=O)N[C@@H](CO)C(=O)NCC(=O)N[C@@H](C)C(=O)N1CCC[C@H]1C(=O)N1CCC[C@H]1C(=O)N1CCC[C@H]1C(=O)N[C@@H](CO)C(N)=O)[C@@H](C)CC)C(C)C [compound 19] | > 1000 | 0.0012 | – | – |
| CC[C@H](C)[C@H](NC(=O)[C@H](CO)NC(=O)[C@H](CC(C)C)NC(=O)[C@H](CC(=O)O)NC(=O)[C@H](CO)NC(=O)[C@@H](NC(=O)[C@H](Cc1ccccc1)NC(=O)[C@@H](NC(=O)CNC(=O)[C@H](CCC(=O)O)NC(=O)C(C)(C)NC(=O)[C@@H](N)Cc1ccc(O)cc1)[C@@H](C)O)[C@@H](C)O)C(=O)N[C@@H](CCC(N)=O)C(=O)N[C@@H](CC(C)C)C(=O)N[C@@H](CCC(=O)O)C(=O)N[C@@H](CCC(=O)O)C(=O)N[C@@H](CCC(=O)O)C(=O)N[C@@H](C)C(=O)N[C@H](C(=O)N[C@@](C)(CCCCN)C(=O)N[C@@H](CC(C)C)C(=O)N[C@@H](Cc1ccccc1)C(=O)N[C@H](C(=O)N[C@@H](CCC(=O)O)C(=O)N[C@@H](Cc1c[nH]c2ccccc12)C(=O)N[C@@H](CC(C)C)C(=O)N[C@@H](CCCCN)C(=O)N[C@@H](C)C(=O)NCC(=O)NCC(=O)N1CCC[C@H]1C(=O)N[C@@H](CO)C(=O)N[C@@H](CO)C(=O)NCC(=O)N[C@@H](C)C(=O)N1CCC[C@H]1C(=O)N1CCC[C@H]1C(=O)N1CCC[C@H]1C(=O)N[C@@H](CO)C(N)=O)[C@@H](C)CC)C(C)C [compound 17] | > 1000 | 0.0011 | – | – |
| CC[C@H](C)[C@H](NC(=O)[C@H](CO)NC(=O)[C@H](CC(C)C)NC(=O)[C@H](CC(=O)O)NC(=O)[C@H](CO)NC(=O)[C@@H](NC(=O)[C@H](Cc1ccccc1)NC(=O)[C@@H](NC(=O)CNC(=O)[C@H](CCC(=O)O)NC(=O)C(C)(C)NC(=O)[C@@H](N)Cc1ccc(O)cc1)[C@@H](C)O)[C@@H](C)O)C(=O)N[C@@H](CCC(N)=O)C(=O)N[C@@H](CC(C)C)C(=O)N[C@@H](CCC(=O)O)C(=O)N[C@@H](CCC(=O)O)C(=O)N[C@@H](CCC(=O)O)C(=O)N[C@@H](C)C(=O)N[C@H](C(=O)N[C@@H](CCCNC(=N)N)C(=O)N[C@@H](CC(C)C)C(=O)N[C@@H](Cc1ccccc1)C(=O)N[C@H](C(=O)N[C@@H](CCC(=O)O)C(=O)N[C@@H](Cc1c[nH]c2ccccc12)C(=O)N[C@@H](CC(C)C)C(=O)N[C@@H](CCCCN)C(=O)N[C@@H](C)C(=O)NCC(=O)NCC(=O)N1CCC[C@H]1C(=O)N[C@@H](CO)C(=O)N[C@@H](CO)C(=O)NCC(=O)N[C@@H](C)C(=O)N1CCC[C@H]1C(=O)N1CCC[C@H]1C(=O)N1CCC[C@H]1C(=O)N[C@@H](CO)C(N)=O)[C@@H](C)CC)C(C)C [compound 15] (H-Y[Aib]EGTFTSDLSIQLEEEAVRLFIEWLKAGGPSSGAPPPS-NH2) | > 1000 | – | – | – |
| CC[C@H](C)[C@H](NC(=O)[C@H](CO)NC(=O)[C@H](CC(C)C)NC(=O)[C@H](CC(=O)O)NC(=O)[C@H](CO)NC(=O)[C@@H](NC(=O)[C@H](Cc1ccccc1)NC(=O)[C@@H](NC(=O)CNC(=O)[C@H](CCC(=O)O)NC(=O)C(C)(C)NC(=O)[C@@H](N)Cc1ccc(O)cc1)[C@@H](C)O)[C@@H](C)O)C(=O)N[C@@H](CCC(N)=O)C(=O)N[C@@H](CC(C)C)C(=O)N[C@@H](CCC(=O)O)C(=O)N[C@@H](CCC(=O)O)C(=O)N[C@@H](CCC(=O)O)C(=O)N[C@@H](C)C(=O)N[C@H](C(=O)N[C@](C)(CCCCN)C(=O)N[C@@H](CC(C)C)C(=O)N[C@@H](Cc1ccccc1)C(=O)N[C@H](C(=O)N[C@@H](CCC(=O)O)C(=O)N[C@@H](Cc1c[nH]c2ccccc12)C(=O)N[C@@H](CC(C)C)C(=O)N[C@@H](CCCCN)C(=O)N[C@@H](C)C(=O)NCC(=O)NCC(=O)N1CCC[C@H]1C(=O)N[C@@H](CO)C(=O)N[C@@H](CO)C(=O)NCC(=O)N[C@@H](C)C(=O)N1CCC[C@H]1C(=O)N1CCC[C@H]1C(=O)N1CCC[C@H]1C(=O)N[C@@H](CO)C(N)=O)[C@@H](C)CC)C(C)C [compound 18] | > 1000 | – | – | – |
| CC[C@H](C)[C@H](NC(=O)[C@H](CO)NC(=O)[C@H](CC(C)C)NC(=O)[C@H](CC(=O)O)NC(=O)[C@H](CO)NC(=O)[C@@H](NC(=O)[C@H](Cc1ccccc1)NC(=O)[C@@H](NC(=O)CNC(=O)[C@H](CCC(=O)O)NC(=O)C(C)(C)NC(=O)[C@@H](N)Cc1ccc(O)cc1)[C@@H](C)O)[C@@H](C)O)C(=O)N[C@@H](CCC(N)=O)C(=O)N[C@@H](CCS(C)(=O)=O)C(=O)N[C@@H](CCC(=O)O)C(=O)N[C@@H](CCCCN)C(=O)N[C@@H](CCC(=O)O)C(=O)N[C@@H](C)C(=O)N[C@H](C(=O)N[C@@H](CCCNC(=N)N)C(=O)N[C@@H](CC(C)C)C(=O)N[C@@H](Cc1ccccc1)C(=O)N[C@H](C(=O)N[C@@H](CCC(=O)O)C(=O)N[C@@H](Cc1c[nH]c2ccccc12)C(=O)N[C@@H](CC(C)C)C(=O)N[C@@H](CCCCN)C(=O)N[C@@H](C)C(=O)NCC(=O)NCC(=O)N1CCC[C@H]1C(=O)N[C@@H](CO)C(=O)N[C@@H](CO)C(=O)NCC(=O)N[C@@H](C)C(=O)N1CCC[C@H]1C(=O)N1CCC[C@H]1C(=O)N1CCC[C@H]1C(=O)N[C@@H](CO)C(N)=O)[C@@H](C)CC)C(C)C [compound 14] (H-Y[Aib]EGTFTSDLSIQ[Met(O2)]EKEAVRLFIEWLKAGGPSSGAPPPS-NH2) | > 1000 | – | > 1000 | > 1000 |
